Patent publication US20020137929A1, “1 - (3-heterocyclylphenyl) isothiourea, -isourea, -guanidine and -amidine herbicidal agents” (Intellectual Property Department, BASF Aktiengesellschaft, priority 1998, published 2002)

What was measured:
[1] = tested on: GLXMAW (Soybean, Williams); assay: Preemergence herbicidal evaluation; assay type: in vivo, Glycine max, (L.) Merr. cv Williams; details: rated 4-5 weeks after treatment
Summary of the method: (§1)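 Seeds were mixed with potting soil and planted on about one inch of soil, then sprayed with test compound in aqueous acetone at about 0.0156 to 0.500 kg per hectare. Plants grew under standard greenhouse care and were visually rated 0-9 against untreated controls 4-5 weeks post-treatment.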

[2] = tested on: ZEAMX (Corn, Field); assay: Postemergence herbicidal evaluation; assay type: in vivo, Zea mays; details: postemergence
Summary of the method: (§2)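 Two-week seedlings sprayed postemergence at 40 psi; formulation: 1:1 acetone/water, 0.5% TWEEN 20; application ≈0.0156–0.500 kg/ha. Greenhouse grow-out, then 0–9 visual scoring at 4–5 weeks.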

[3] = tested on: AMBEL (Ragweed, Common); assay: Preemergence herbicidal evaluation; assay type: in vivo, Ambrosia artemisifolia; details: rated 4-5 weeks after treatment
Summary of the method: as §1

[4] = tested on: CYPSE (Flatsedge); assay: Preemergence weed control under flooded paddy conditions; assay type: in vivo, Cyperus serotinus; details: rated 3-4 weeks after treatment
Summary of the method: (§3)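 Greenhouse paddy assay. Acetone/water (50/50 v/v) solutions dosed into flood water, equivalent to about 0.0313 to 0.500 kg/ha active ingredient, over seeds planted 0.5 cm deep in silt loam. Score: 0-9 visual, based on stand, vigor, malformation, size and chlorosis, 3 to 4 weeks after treatment.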

[5] = tested on: SAGPY (Arrowhead (Pygmaea)); assay: as above; assay type: in vivo, Sagittaria pygmaea; details: rated 3-4 weeks after treatment
Summary of the method: as §3

[6] = tested on: CASOB (Sicklepod); assay: Preemergence herbicidal evaluation; assay type: in vivo, Cassia obtusifolia; details: rated 4-5 weeks after treatment
Summary of the method: as §1

[7] = tested on: ECHCG (Barnyardgrass); assay: Preemergence herbicidal evaluation; assay type: in vivo, Echinochloa crus-galli; details: rated 4-5 weeks after treatment
Summary of the method: as §1

[8] = tested on: ABUTH (Velvetleaf); assay: Preemergence herbicidal evaluation; assay type: in vivo, Abutilon theophrasti; details: rated 4-5 weeks after treatment
Summary of the method: as §1

[9] = tested on: AMBEL (Ragweed, Common); assay: Postemergence herbicidal evaluation; assay type: in vivo, Ambrosia artemisifolia; details: postemergence
Summary of the method: as §2

[10] = tested on: GALAP (Galium); assay: Preemergence herbicidal evaluation; assay type: in vivo, Galium aparine; details: rated 4-5 weeks after treatment
Summary of the method: as §1

[11] = tested on: SETVI (Foxtail, Green); assay: Preemergence herbicidal evaluation; assay type: in vivo, Setaria viridis; details: rated 4-5 weeks after treatment
Summary of the method: as §1

[12] = tested on: GLXMAW (Soybean, Williams); assay: Postemergence herbicidal evaluation; assay type: in vivo, Glycine max, (L.) Merr. cv Williams; details: postemergence
Summary of the method: as §2

[13] = tested on: IPOHE (Morningglory, Ivyleaf); assay: Postemergence herbicidal evaluation; assay type: in vivo, Ipomoea hederacea; details: postemergence
Summary of the method: as §2

[14] = rate 0.1250 kg/ha, rating scale 0-9
[15] = rate 0.2500 kg/ha, rating scale 0-9

CCOC(=O)CN1C(=O)C(C(=O)OC(C)(C)C)SC1=Nc1cc(-n2c(=O)cc(C(F)(F)F)n(C)c2=O)c(F)cc1Cl (stereo not drawn) [Compound 167, 5-Carboxy-2-{{2-chloro-5-[3,6-dihydro-3-methyl-2,6-dioxo-4-(trifluoromethyl)-1(2H)-pyrimidinyl]-4-fluorophenyl}imino}-4-oxo-3-thiazolidineacetic acid, 5-tert-butyl ethyl ester]
Preemergence herbicidal rating GLXMAW ([1]; 0.0156 kg/ha): 1.0 | Preemergence herbicidal rating GLXMAW ([1]; 0.0313 kg/ha): 0.0 | Preemergence herbicidal rating GLXMAW ([1]; 0.0625 kg/ha): 0.0 | Preemergence herbicidal rating GLXMAW ([1]; 0.1250 kg/ha): 4.0 | Preemergence herbicidal rating GLXMAW ([1]; 0.2500 kg/ha): 4.0 | Preemergence herbicidal rating GLXMAW ([1]; 0.5000 kg/ha): 7.0 | Herbicidal rating ZEAMX ([2]; rate 0.0156 kg/ha): 4.5 | Herbicidal rating ZEAMX ([2]; rate 0.0313 kg/ha): 5.5 | Herbicidal rating ZEAMX ([2]; rate 0.0625 kg/ha): 5.5 | Herbicidal rating ZEAMX ([2]; rate 0.1250 kg/ha): 5.5 | Preemergence herbicidal rating AMBEL ([3]; 0.0156 kg/ha): 1.0 | Preemergence herbicidal rating AMBEL ([3]; 0.0313 kg/ha): 0.0 | Preemergence herbicidal rating AMBEL ([3]; 0.0625 kg/ha): 7.0 | Preemergence herbicidal rating AMBEL ([3]; 0.1250 kg/ha): 6.0 | Preemergence herbicidal rating AMBEL ([3]; 0.2500 kg/ha): 7.0 | Preemergence herbicidal rating AMBEL ([3]; 0.5000 kg/ha): 8.0 | herbicidal effect rating, CYPSE ([4]; 0.0313 kg/ha): 0.0 | herbicidal effect rating, CYPSE ([4]; 0.0625 kg/ha): 0.0 | herbicidal effect rating, CYPSE ([4]; 0.1250 kg/ha): 3.0 | herbicidal effect rating, CYPSE ([4]; 0.2500 kg/ha): 5.0 | herbicidal effect rating, SAGPY ([5]; 0.0313 kg/ha): 4.0 | herbicidal effect rating, SAGPY ([5]; 0.0625 kg/ha): 5.0 | herbicidal effect rating, SAGPY ([5]; 0.1250 kg/ha): 6.0 | herbicidal effect rating, SAGPY ([5]; 0.2500 kg/ha): 7.0 | Preemergence herbicidal rating CASOB ([6]; 0.0156 kg/ha): 0.0 | Preemergence herbicidal rating CASOB ([6]; 0.0313 kg/ha): 0.0 | Preemergence herbicidal rating CASOB ([6]; 0.0625 kg/ha): 1.0 | Preemergence herbicidal rating CASOB ([6]; 0.1250 kg/ha): 1.0 | Preemergence herbicidal rating CASOB ([6]; 0.2500 kg/ha): 4.0 | Preemergence herbicidal rating CASOB ([6]; 0.5000 kg/ha): 9.0 | Preemergence herbicidal rating ECHCG ([7]; 0.0156 kg/ha): 0.0 | Preemergence herbicidal rating ECHCG ([7]; 0.0313 kg/ha): 0.0 | Preemergence herbicidal rating ECHCG ([7]; 0.0625 kg/ha): 6.0 | Preemergence herbicidal rating ECHCG ([7]; 0.1250 kg/ha): 9.0 | Preemergence herbicidal rating ECHCG ([7]; 0.2500 kg/ha): 9.0 | Preemergence herbicidal rating ECHCG ([7]; 0.5000 kg/ha): 8.0 | Preemergence herbicidal rating ABUTH ([8]; 0.0313 kg/ha): 0.0 | Preemergence herbicidal rating ABUTH ([8]; 0.0625 kg/ha): 9.0 | Preemergence herbicidal rating ABUTH ([8]; 0.1250 kg/ha): 9.0 | Preemergence herbicidal rating ABUTH ([8]; 0.2500 kg/ha): 9.0 | Preemergence herbicidal rating ABUTH ([8]; 0.5000 kg/ha): 9.0 | Herbicidal rating AMBEL ([9]; rate 0.0156 kg/ha): 4.0 | Herbicidal rating AMBEL ([9]; rate 0.0313 kg/ha): 7.0 | Herbicidal rating AMBEL ([9]; rate 0.0625 kg/ha): 9.0 | Herbicidal rating AMBEL ([9]; rate 0.1250 kg/ha): 7.0 | Preemergence herbicidal rating GALAP ([10]; 0.0156 kg/ha): 1.0 | Preemergence herbicidal rating GALAP ([10]; 0.0313 kg/ha): 5.0 | Preemergence herbicidal rating GALAP ([10]; 0.0625 kg/ha): 7.0 | Preemergence herbicidal rating GALAP ([10]; 0.1250 kg/ha): 9.0 | Preemergence herbicidal rating GALAP ([10]; 0.2500 kg/ha): 6.0 | Preemergence herbicidal rating GALAP ([10]; 0.5000 kg/ha): 7.0 | Preemergence herbicidal rating SETVI ([11]; 0.0156 kg/ha): 5.0 | Preemergence herbicidal rating SETVI ([11]; 0.0313 kg/ha): 7.0 | Preemergence herbicidal rating SETVI ([11]; 0.0625 kg/ha): 9.0 | Preemergence herbicidal rating SETVI ([11]; 0.1250 kg/ha): 9.0 | Preemergence herbicidal rating SETVI ([11]; 0.2500 kg/ha): 9.0 | Preemergence herbicidal rating SETVI ([11]; 0.5000 kg/ha): 9.0 | Herbicidal rating GLXMAW ([12]; rate 0.0156 kg/ha): 5.0 | Herbicidal rating GLXMAW ([12]; rate 0.0313 kg/ha): 6.0 | Herbicidal rating GLXMAW ([12]; rate 0.0625 kg/ha): 6.5 | Herbicidal rating GLXMAW ([12]; rate 0.1250 kg/ha): 6.5 | Herbicidal rating IPOHE ([13]; rate 0.0156 kg/ha): 9.0 | Herbicidal rating IPOHE ([13]; rate 0.0313 kg/ha): 9.0 | Herbicidal rating IPOHE ([13]; rate 0.0625 kg/ha): 9.0 | Herbicidal rating IPOHE ([13]; rate 0.1250 kg/ha): 9.0

Cc1ccc(CN2C(=O)CSC2=Nc2cc(-n3c(=O)cc(C(F)(F)F)n(C)c3=O)c(F)cc2Cl)cc1Cl [Compound 149, 3-{4-Chloro-5-{[3-(3-chloro-4-methylbenzyl)-4-oxo-2-thiazolidinylidene]amino}-2-fluorophenyl}-1-methyl-6-(trifluoromethyl)-2,4(1H,3H)-pyrimidinedione]
Preemergence herbicidal rating GLXMAW [1, 14]: 3.0 | Preemergence herbicidal rating GLXMAW [1, 15]: 7.0 | Herbicidal rating ZEAMX ([2]; rate 0.0156 kg/ha): 4.0 | Herbicidal rating ZEAMX ([2]; rate 0.0313 kg/ha): 4.5 | Herbicidal rating ZEAMX ([2]; rate 0.0625 kg/ha): 4.5 | Preemergence herbicidal rating AMBEL [3, 14]: 0.0 | Preemergence herbicidal rating AMBEL [3, 15]: 0.0 | herbicidal effect rating, CYPSE ([4]; 0.0313 kg/ha): 0.0 | herbicidal effect rating, CYPSE ([4]; 0.0625 kg/ha): 0.0 | herbicidal effect rating, CYPSE ([4]; 0.1250 kg/ha): 0.0 | herbicidal effect rating, CYPSE ([4]; 0.2500 kg/ha): 0.0 | herbicidal effect rating, SAGPY ([5]; 0.0313 kg/ha): 0.0 | herbicidal effect rating, SAGPY ([5]; 0.0625 kg/ha): 2.0 | herbicidal effect rating, SAGPY ([5]; 0.1250 kg/ha): 3.0 | herbicidal effect rating, SAGPY ([5]; 0.2500 kg/ha): 3.0 | Preemergence herbicidal rating CASOB [6, 14]: 0.0 | Preemergence herbicidal rating CASOB [6, 15]: 0.0 | Preemergence herbicidal rating ECHCG [7, 14]: 0.0 | Preemergence herbicidal rating ECHCG [7, 15]: 0.0 | Preemergence herbicidal rating ABUTH [8, 14]: 3.0 | Preemergence herbicidal rating ABUTH [8, 15]: 7.0 | Herbicidal rating AMBEL ([9]; rate 0.0156 kg/ha): 4.0 | Herbicidal rating AMBEL ([9]; rate 0.0313 kg/ha): 9.0 | Herbicidal rating AMBEL ([9]; rate 0.0625 kg/ha): 9.0 | Preemergence herbicidal rating GALAP [10, 14]: 0.0 | Preemergence herbicidal rating GALAP [10, 15]: 0.0 | Preemergence herbicidal rating SETVI [11, 14]: 0.0 | Preemergence herbicidal rating SETVI [11, 15]: 0.0 | Herbicidal rating GLXMAW ([12]; rate 0.0156 kg/ha): 4.0 | Herbicidal rating GLXMAW ([12]; rate 0.0313 kg/ha): 4.5 | Herbicidal rating GLXMAW ([12]; rate 0.0625 kg/ha): 4.5 | Herbicidal rating IPOHE ([13]; rate 0.0156 kg/ha): 9.0 | Herbicidal rating IPOHE ([13]; rate 0.0313 kg/ha): 9.0 | Herbicidal rating IPOHE ([13]; rate 0.0625 kg/ha): 9.0
